One data set has as its target CYP2D6 (Homo sapiens (Human), UniProt P10635). Briefly: CYP inhibition test, CYP2D6. It is filed as in vitro ADME. Conditions: pooled human liver microsomes; dextromethorphan O-demethylation; given as 'five kinds'. An excerpt:
(§1) Using commercially available pooled human hepatic microsome, and employing, as markers, 7-ethoxyresorufin O-deethylation (CYP1A2), tolbutamide methyl-hydroxylation (CYP2C9), mephenytoin 4'-hydroxylation (CYP2C19), dextromethorphan 0-demethylation (CYP2D6), and terfenadine hydroxylation (CYP3A4) as typical substrate metabolism reactions of human main five CYP enzyme forms (CYP1A2, 2C9, 2C19, 2D6, 3A4), an inhibitory degree of each metabolite production amount by the compound of the present invention was assessed. The reaction conditions are as follows: substrate, 0.5 μmol/L ethoxyresorufin (CYP1A2), 100 μmol/L tolbutamide (CYP2C9), 50 μmol/L S-mephenitoin (CYP2C19), 5 μmol/L dextromethorphan (CYP2D6), 1 μmol/L terfenedine (CYP3A4); reaction time, 15 minutes; reaction temperature, 37° C.; enzyme, pooled human liver microsomes 0.2 mg protein/mL; concentrations of the compound of the present invention, 1, 5, 10, 20 μmol/L (four points). As a reaction solution, each five kinds of substrates, human liver microsomes, or compound of the present invention in 50 mmol/L Hepes buffer were added to a 96-well plate at the composition as described above, and NADPH, as a cofactor was added to initiate metabolism reactions. After the incubation at 37° C. for 15 minutes, a methanol/acetonitrile=1/[…]) solution was added to stop the reaction. After the centrifugation at 3000 rpm for 15 minutes, resorufin (CYP1A2 metabolite) in the supernatant was quantified by a fluorescent multilabel counter or LC/MS/MS, and tolbutamide hydroxide (CYP2C9 metabolite), mephenytoin 4' hydroxide (CYP2C19 metabolite), dextrorphan (CYP2D6 metabolite), and terfenadine alcohol (CYP3A4 metabolite) were quantified by LC/MS/MS. Addition of only DMSO being a solvent dissolving a drug to a reaction system was adopted as a control (100%). Remaining activity (%) was calculated. IC50 was calculated by reverse presumption by a logistic model using the concentration and an inhibition rate.

The nature of data set [1]: Metabolism stability test (human liver microsomes). Conditions: compound concentration 0.5 μmol/L, 37° C., 30 minutes, NADPH. The data set is classed as in vitro ADME. On the procedure:
Using commercially available pooled human hepatic microsomes, the compound of the present invention was reacted for a constant time, a remaining rate was calculated by comparing a reacted sample and an unreacted sample, thereby, a degree of metabolism of the compound of the present invention in liver was assessed.
A reaction was performed (oxidative reaction) at 37° C. for 0 minute or 30 minutes in the presence of 1 mmol/L NADPH in 0.2 mL of a buffer (50 mmol/L Tris-HCl pH 7.4, 150 mmol/L potassium chloride, 10 mmol/L magnesium chloride) containing 0.5 mg protein/mL of human liver microsomes. After the reaction, 50 μL of the reaction solution was added to 100 μL of a methanol/acetonitrile=1/1 (v/v) solution, mixed and centrifuged at 3000 rpm for 15 minutes. The compound of the present invention in the supernatant was quantified by LC/MS/MS, and a remaining amount of the compound of the present invention after the reaction was calculated, letting a compound amount at 0 minute reaction time to be 100%.

The target of a further data set is CYP2C19 (Homo sapiens (Human), UniProt P33261). Briefly: CYP inhibition test, CYP2C19. The data set is classed as in vitro ADME. Conditions: pooled human liver microsomes; mephenytoin 4′-hydroxylation; given as 'five kinds'.
Chain of CYP2C19 (P33261 whole entry): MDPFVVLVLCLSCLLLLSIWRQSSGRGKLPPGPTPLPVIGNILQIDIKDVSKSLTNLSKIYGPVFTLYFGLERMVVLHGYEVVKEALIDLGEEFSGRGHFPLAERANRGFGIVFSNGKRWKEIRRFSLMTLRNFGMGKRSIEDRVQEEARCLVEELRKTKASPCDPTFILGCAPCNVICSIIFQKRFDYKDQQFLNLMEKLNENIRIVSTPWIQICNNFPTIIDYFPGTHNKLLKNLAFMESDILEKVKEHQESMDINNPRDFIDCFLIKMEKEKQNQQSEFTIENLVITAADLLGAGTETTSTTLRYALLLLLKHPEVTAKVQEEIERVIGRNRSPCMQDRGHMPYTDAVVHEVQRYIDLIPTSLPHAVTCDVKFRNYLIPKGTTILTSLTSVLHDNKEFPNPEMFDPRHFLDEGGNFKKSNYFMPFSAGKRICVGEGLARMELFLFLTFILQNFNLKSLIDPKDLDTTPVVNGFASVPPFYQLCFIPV
From the text: as §1

Data set [2] concerns the target T1, CYP3A4 (Homo sapiens (Human), UniProt P08684). Briefly: CYP inhibition test, CYP3A4. It is filed as in vitro ADME. The following applies: pooled human liver microsomes; terfenadine hydroxylation; given as 'five kinds'.
From the text: as §1

A further data set has as its target hERG (IKr) (Homo sapiens (Human), UniProt Q12809). Briefly: hERG test. Conditions: CHO cells expressing hERG channel, pH 7.4, 10 μmol/L of test compound, read-out: % inhibition of hERG tail peak current (IKr). It is filed as cell-based. An excerpt: For the purpose of assessing risk of an electrocardiogram QT interval prolongation of the compound of the present invention, effects of the compound of the present invention on delayed rectifier K^+ current (IKr), which plays an important role in the ventricular repolarization process, was studied using CHO cells expressing human ether-a-go-go related gene (hERG) channel.
After a cell was retained at a membrane potential of −80 mV by whole cell patch clamp method using an automated patch clamp system (QPatch; Sophion BIoscience A/S), IKr induced by application of a leak potential of −50 mV followed by depolarization pulse stimulation at +20 mV for 2 seconds and, further, repolarization pulse stimulation at −50 mV for 2 seconds, was recorded. […] From the recording IKr, an absolute value of the tail peak current was measured based on the current value at the resting membrane potential using analysis software (Falster Patch; Sophion Bioscience A/S). Further, the % inhibition of tail peak current for the compound of the present invention relative to the tail peak current after application of the vehicle is calculated to assess influence of the compound of the present invention on IKr.

The target in data set [3] is T1, CYP3A4. Briefly: CYP3A4 (MDZ) MBI test. The following applies: pooled human liver microsomes; midazolam 1-hydroxylation; preincubation 0 vs 30 min. It is filed as in vitro ADME. The protocol: CYP3A4 (MDZ) MBI test is a test of investigating mechanism based inhibition (MBI) potential on CYP3A4 by the enhancement of inhibitory degree of a metabolic reaction caused by the compound of the present invention. CYP3A4 inhibition was evaluated using pooled human liver microsomes by 1-hydroxylation reaction of midazolam (MDZ) as a marker reaction.
The reaction conditions are as follows: substrate, 10 μmol/L MDZ; pre-reaction time, 0 or 30 minutes; substrate reaction time, 2 minutes; reaction temperature, 37° C.; protein content of pooled human liver microsomes, at pre-reaction time 0.5 mg/mL, at reaction time 0.05 mg/mL (at 10-fold dilution); concentrations of the compound of the present invention, at pre-reaction time 1, 5, 10, 20 μmol/L (four points).
Pooled human liver microsomes and a solution of the compound of the present invention in K-Pi buffer (pH 7.4) as a pre-reaction solution were added to a 96-well plate at the composition of the pre-reaction. A part of pre-reaction solution was transferred to another 96-well plate, and 1/10 diluted by K-Pi buffer containing a substrate. NADPH as a co-factor was added to initiate a reaction as a marker reaction (without pre-reaction). After a predetermined time of a reaction, methanol/acetonitrile=1/1 (V/V) solution was added to stop the reaction. In addition, NADPH was added to a remaining pre-reaction solution to initiate a pre-reaction (with pre-reaction). After a predetermined time of a pre-reaction, a part was transferred to another plate, and 1/10 diluted by K-Pi buffer containing a substrate to initiate a reaction as a marker reaction. After a predetermined time of a reaction, methanol/acetonitrile=1/1 (V/V) solution was added in order to stop the reaction. The plate on which each index reaction had been performed was centrifuged at 3000 rpm for 15 minutes, and thereafter 1-hydroxylated midazolam in the supernatant was quantified by LC/MS/MS.
The sample adding DMSO as a solvent to a reaction system instead of a solution dissolving the compound of the present invention was adopted as a control (100%). Remaining activity (%) was calculated at each concentration of the compound of the present invention compared to a control, and IC value was calculated by reverse-presumption by a logistic model using a concentration and an inhibition rate. IC at Preincubation 0 min/IC at Preincubation 30 min was defined as a value of Shifted IC, and a case that Shifted IC was 1.5 or more was regarded as Positive, and a case that Shifted IC was 1.0 or less was regarded as Negative.

A short description of data set [4]: Solubility test (1% DMSO addition, pH 6.8 artificial intestinal juice). The data set is classed as physicochemical. The following applies: kinetic from dmso stock, 16 hours at 25° C. The protocol: The solubility of the compound of the present invention was determined under 1% DMSO addition conditions. 10 mmol/L solution of the compound was prepared with DMSO, and 6 μL of the solution of the compound of the present invention was added to 594 μL of pH 6.8 artificial intestinal juice (118 mL of 0.2 mol/L NaOH test solution and water were added to 250 mL of 0.2 mol/L potassium dihydrogen phosphate test solution to reach 1000 mL). The mixture was left standing for 16 hours at 25° C., and the mixture was vacuum-filtered. The filtrate was two-fold diluted with methanol/water=1/1 (V/V), and the compound concentration in the filtrate was measured with HPLC or LC/MS/MS by the absolute calibration method. The dilution concentration and the dilution solvent were changed as necessary.

Another data set deals with CYP1A2 (Homo sapiens (Human), UniProt P05177). Briefly: CYP inhibition test, CYP1A2. Conditions: pooled human liver microsomes; 7-ethoxyresorufin O-deethylation; given as 'five kinds'. It is filed as in vitro ADME.
Chain of CYP1A2 (P05177 whole entry): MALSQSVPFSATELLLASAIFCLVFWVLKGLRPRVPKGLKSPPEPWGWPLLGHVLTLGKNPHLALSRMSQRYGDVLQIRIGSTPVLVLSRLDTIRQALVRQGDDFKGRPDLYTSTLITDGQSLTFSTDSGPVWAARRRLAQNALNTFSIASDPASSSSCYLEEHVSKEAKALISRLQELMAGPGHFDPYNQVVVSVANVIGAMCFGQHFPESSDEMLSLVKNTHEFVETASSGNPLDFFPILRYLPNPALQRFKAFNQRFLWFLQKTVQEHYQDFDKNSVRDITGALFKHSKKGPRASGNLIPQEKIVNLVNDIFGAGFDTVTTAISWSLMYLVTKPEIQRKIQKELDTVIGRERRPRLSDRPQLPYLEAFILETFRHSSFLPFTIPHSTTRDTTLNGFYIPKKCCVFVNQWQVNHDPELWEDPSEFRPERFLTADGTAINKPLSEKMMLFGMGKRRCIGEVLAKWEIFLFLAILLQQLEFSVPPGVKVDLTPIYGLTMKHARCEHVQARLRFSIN
From the text: as §1

A further data set has as its target CYP2C9 (Homo sapiens (Human), UniProt P11712). Briefly: CYP inhibition test, CYP2C9. The data set is classed as in vitro ADME. The following applies: pooled human liver microsomes; tolbutamide methyl-hydroxylation; given as 'five kinds'.
From the text: as §1

The structures appear in SMILES notation. Some results are limits rather than exact numbers.

Chain of CYP2C9 (P11712 whole entry): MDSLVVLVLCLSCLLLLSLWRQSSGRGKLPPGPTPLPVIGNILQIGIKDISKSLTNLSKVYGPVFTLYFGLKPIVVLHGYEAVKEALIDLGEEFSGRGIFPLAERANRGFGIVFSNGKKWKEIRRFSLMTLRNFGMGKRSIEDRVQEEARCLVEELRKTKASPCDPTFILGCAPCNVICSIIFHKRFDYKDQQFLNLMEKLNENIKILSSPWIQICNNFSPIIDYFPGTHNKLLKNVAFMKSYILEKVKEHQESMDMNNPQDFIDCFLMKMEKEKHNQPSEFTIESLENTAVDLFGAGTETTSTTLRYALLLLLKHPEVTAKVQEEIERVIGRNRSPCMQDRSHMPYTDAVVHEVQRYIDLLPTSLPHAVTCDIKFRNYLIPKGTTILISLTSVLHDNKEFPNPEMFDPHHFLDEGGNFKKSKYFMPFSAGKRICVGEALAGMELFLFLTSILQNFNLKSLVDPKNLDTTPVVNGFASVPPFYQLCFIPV
Chain of hERG (IKr) (Q12809 whole entry): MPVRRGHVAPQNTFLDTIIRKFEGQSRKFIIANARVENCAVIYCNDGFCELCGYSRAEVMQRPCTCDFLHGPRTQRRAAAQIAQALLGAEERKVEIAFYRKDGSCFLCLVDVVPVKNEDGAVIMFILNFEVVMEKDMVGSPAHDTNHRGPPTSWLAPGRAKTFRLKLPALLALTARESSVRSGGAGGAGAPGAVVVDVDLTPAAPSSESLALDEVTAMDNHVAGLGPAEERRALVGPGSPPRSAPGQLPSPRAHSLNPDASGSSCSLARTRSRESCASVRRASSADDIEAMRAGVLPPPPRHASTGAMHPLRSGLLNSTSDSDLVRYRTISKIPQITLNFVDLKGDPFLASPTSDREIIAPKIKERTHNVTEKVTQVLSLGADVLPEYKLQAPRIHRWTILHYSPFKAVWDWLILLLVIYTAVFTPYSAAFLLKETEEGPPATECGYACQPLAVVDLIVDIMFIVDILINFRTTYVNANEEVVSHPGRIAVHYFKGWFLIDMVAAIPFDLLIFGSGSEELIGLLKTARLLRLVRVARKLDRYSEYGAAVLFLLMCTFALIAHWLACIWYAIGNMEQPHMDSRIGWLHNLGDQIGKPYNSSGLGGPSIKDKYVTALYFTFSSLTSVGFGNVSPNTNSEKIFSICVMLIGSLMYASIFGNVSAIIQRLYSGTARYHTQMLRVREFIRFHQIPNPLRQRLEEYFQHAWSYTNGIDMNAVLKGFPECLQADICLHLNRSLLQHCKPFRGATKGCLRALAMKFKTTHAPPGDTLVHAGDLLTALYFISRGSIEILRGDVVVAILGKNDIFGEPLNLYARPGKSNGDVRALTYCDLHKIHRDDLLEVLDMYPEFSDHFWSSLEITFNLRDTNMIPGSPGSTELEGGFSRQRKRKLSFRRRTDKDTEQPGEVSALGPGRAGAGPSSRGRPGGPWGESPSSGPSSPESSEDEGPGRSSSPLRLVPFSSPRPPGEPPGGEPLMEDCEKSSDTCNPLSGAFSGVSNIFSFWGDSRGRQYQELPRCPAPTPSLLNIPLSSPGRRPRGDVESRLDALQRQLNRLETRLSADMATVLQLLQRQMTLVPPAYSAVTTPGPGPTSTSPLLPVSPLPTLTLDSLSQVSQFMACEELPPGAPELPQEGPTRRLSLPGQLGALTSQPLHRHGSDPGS
Chain of CYP2D6 (P10635 whole entry): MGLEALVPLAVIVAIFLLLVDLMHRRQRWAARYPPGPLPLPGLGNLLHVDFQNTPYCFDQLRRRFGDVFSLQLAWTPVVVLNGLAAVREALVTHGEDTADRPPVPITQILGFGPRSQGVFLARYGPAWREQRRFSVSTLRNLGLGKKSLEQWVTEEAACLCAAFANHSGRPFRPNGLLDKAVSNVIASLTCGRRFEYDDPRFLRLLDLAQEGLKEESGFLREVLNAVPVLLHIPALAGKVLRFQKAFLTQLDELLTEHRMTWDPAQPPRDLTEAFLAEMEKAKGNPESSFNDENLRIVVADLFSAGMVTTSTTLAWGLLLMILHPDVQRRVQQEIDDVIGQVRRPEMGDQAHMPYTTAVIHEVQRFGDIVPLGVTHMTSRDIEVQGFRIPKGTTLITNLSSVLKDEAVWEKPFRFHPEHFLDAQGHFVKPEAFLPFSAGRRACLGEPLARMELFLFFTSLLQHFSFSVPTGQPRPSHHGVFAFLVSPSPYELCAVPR
T1 sequence (P08684 whole entry): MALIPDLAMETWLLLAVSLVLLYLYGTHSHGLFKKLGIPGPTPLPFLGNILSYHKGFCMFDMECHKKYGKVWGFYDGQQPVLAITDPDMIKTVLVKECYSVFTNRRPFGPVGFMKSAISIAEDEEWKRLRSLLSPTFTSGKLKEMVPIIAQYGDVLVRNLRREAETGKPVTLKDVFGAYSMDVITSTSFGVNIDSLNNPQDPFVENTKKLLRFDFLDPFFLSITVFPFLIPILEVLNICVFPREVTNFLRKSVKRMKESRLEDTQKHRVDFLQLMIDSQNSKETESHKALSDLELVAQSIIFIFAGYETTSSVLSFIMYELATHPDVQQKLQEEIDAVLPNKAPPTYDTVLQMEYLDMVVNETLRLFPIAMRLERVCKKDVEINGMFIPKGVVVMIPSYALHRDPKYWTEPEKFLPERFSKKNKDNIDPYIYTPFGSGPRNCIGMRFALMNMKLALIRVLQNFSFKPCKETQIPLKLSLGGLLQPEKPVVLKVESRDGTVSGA

Consider `CS(=O)(=O)CC(=O)Nc1c(-c2ccc(F)cc2)nn2c1C(=O)N[C@@]1(CCOc3cc(OCC(F)(F)F)ccc31)C2` [Compound I-66], for which the IC50 against CYP2D6, against CYP2C19, against CYP3A4 [2], against CYP1A2 and against CYP2C9 was greater than 20 µM in each case. The same compound had a Remaining rate in data set [1] of 105%. The inhibition at 10 min, 10 μmol/L on hERG (IKr) worked out at 14.6%. For the same compound, at CYP3A4 [3], the “CYP3A4 (MDZ) MBI (Shifted IC judgement)” value was “Negative (a case that Shifted IC was 1.0 or less was regarded as Negative)”. The compound further came in with a solubility at 16 h in data set [4] greater than 50 µM.
For `CS(=O)(=O)CC(=O)Nc1c(-c2ccc(Cl)cn2)nn2c1C(=O)N[C@]1(CCOc3cc(F)cc(F)c31)C2` [Compound I-151], the IC50 against CYP2D6, on CYP2C19, at CYP3A4 [2], at CYP1A2 and against CYP2C9 was greater than 20 µM each time. Also, the Remaining rate in data set [1] is on record as 104%. For the same compound, the inhibition at 10 min, 10 μmol/L at hERG (IKr) is 25.8%. Also, the “CYP3A4 (MDZ) MBI (Shifted IC judgement)” value at CYP3A4 [3] is reported as “Negative (a case that Shifted IC was 1.0 or less was regarded as Negative)”. Also, in [4], the solubility at 16 h was greater than 50 µM.
Regarding `CS(=O)(=O)CC(=O)Nc1c(-c2ccc(F)c(F)c2)nn2c1C(=O)N[C@@]1(CCc3cc(F)cc(F)c31)C2` [Compound I-130], the IC50 against CYP2D6, at CYP2C19, on CYP3A4 [2], at CYP1A2 and at CYP2C9 was greater than 20 µM throughout. This compound also registered a Remaining rate in [1] of 94.8%. The inhibition at 10 min, 10 μmol/L on hERG (IKr) is 15.4%. Moreover, the “CYP3A4 (MDZ) MBI (Shifted IC judgement)” value on CYP3A4 [3] is given as “Negative (a case that Shifted IC was 1.0 or less was regarded as Negative)”. In data set [4], this compound gave a solubility at 16 h greater than 50 µM.
In turn, `CS(=O)(=O)CC(=O)Nc1c(-c2ccc(F)cc2)nn2c1C(=O)N[C@]1(CCc3cc(OCC(F)(F)F)ccc31)C2` [Compound I-79] showed a Remaining rate in [1] of 77.2%. Besides, the inhibition at 10 min, 10 μmol/L at hERG (IKr) was found to be 25.5%. This compound had a solubility at 16 h in data set [4] greater than 50 µM.
Turning to `CS(=O)(=O)CC(=O)Nc1c(-c2ccc(Cl)cn2)nn2c1C(=O)N[C@]1(CCc3cc(F)cc(F)c31)C2` [Compound I-147], the IC50 against CYP2D6, at CYP2C19, on CYP3A4 [2], at CYP1A2 and on CYP2C9 was greater than 20 µM in each case. In addition, in [1], the Remaining rate amounted to 89.8%. Further, the inhibition at 10 min, 10 μmol/L on hERG (IKr) stood at 21.6%. For the same compound, the “CYP3A4 (MDZ) MBI (Shifted IC judgement)” value on CYP3A4 [3] was “Negative (a case that Shifted IC was 1.0 or less was regarded as Negative)”. This compound gave a solubility at 16 h in data set [4] greater than 50 µM.
Turning to `CS(=O)(=O)CC(=O)Nc1c(-c2ccc(F)c(F)c2)nn2c1C(=O)N[C@@]1(CCOc3cc(F)cc(F)c31)C2` [Compound I-126], the IC50 on CYP2D6, at CYP2C19, against CYP3A4 [2], at CYP1A2 and on CYP2C9 was greater than 20 µM throughout. Also, in data set [1], the Remaining rate is 100%. Moreover, the inhibition at 10 min, 10 μmol/L on hERG (IKr) amounted to 14.2%. Also, the “CYP3A4 (MDZ) MBI (Shifted IC judgement)” value at CYP3A4 [3] was “Negative (a case that Shifted IC was 1.0 or less was regarded as Negative)”. The compound further registered a solubility at 16 h in data set [4] greater than 50 µM.

For the origin of these results see patent US12227509B2, “Dihydropyrazolopyrazinone derivative having MGAT2 inhibitory activity” (Shionogi & Co., Ltd., priority 2019, dated 2025).
